Values of other authors as cited in patent publication EP3125915B1, “PROCESS FOR PREPARING A POWDERED MIXTURE OF BORNEOL AND PLANT PROTEINS TO BE USED AS DIETARY OR FOOD SUPPLEMENT, AND RELATED DIETARY OR FOOD SUPPLEMENT” (priority 2014, dated 2015).
Where two headings read alike, the source gives them in different places. Each block holds one compound with its values, some of them ahead of it.

Columns and labels:
[1] = with borneol
[2] = with borneol; remark: listed apart in the source
[3] = with borneol; remark: listed apart in the source
[4] = not given; remark: listed apart in the source
[5] = not given; remark: listed apart in the source
[6] = with borneol; remark: listed apart in the source

- absorption of quercetin in mice brain tissue [1]: improves
Compound: O=c1c(O)c(-c2ccc(O)c(O)c2)oc2cc(O)cc(O)c12 [quercetin]

- bioavailability of carbamazepine [2]: significantly improve
Compound: NC(=O)N1c2ccccc2C=Cc2ccccc21 [carbamazepine]

Continued, compound first:

Compound: COC(=O)C1=CO[C@@H](O[C@@H]2O[C@H](CO)[C@@H](O)[C@H](O)[C@H]2O)[C@@H]2C(CO)=CC[C@H]12 [geniposide]
- permeability of geniposide ([3]; cortex and striatum regions): no change
- permeability of geniposide ([3]; hippocampus and hypothalamus regions): increase
- brain delivery of geniposide (borneol high dose increasing from 2.0 g/kg to 4.0 g/kg): decreased
- delivery of geniposide in the rat brain (borneol low dose range of 0.05-2.0 g/kg): increases

Compound: Cc1nc(C)c(C)nc1C.O=P(O)(O)O [TMPP, tetramethylpyrazine phosphate]
- oral bioavailability of TMPP in brain tissue, times increased than that without borneol ([4]; oral borneol 15 mg kg^-1): 1.12 times
- oral bioavailability of TMPP in mice plasma, times increased than that without borneol ([4]; oral borneol 15 mg kg^-1): 1.52 times
- oral bioavailability of TMPP in brain tissue, times increased than that without borneol ([4]; oral borneol 30 mg kg^-1): 1.62 times
- oral bioavailability of TMPP in mice plasma, times increased than that without borneol ([4]; oral borneol 30 mg kg^-1): 2.21 times
- oral bioavailability of TMPP in brain tissue, times increased than that without borneol ([4]; oral borneol 90 mg kg^-1): 1.93 times
- oral bioavailability of TMPP in mice plasma, times increased than that without borneol ([4]; oral borneol 90 mg kg^-1): 2.95 times

Compound: OCc1ccc(O[C@@H]2O[C@H](CO)[C@@H](O)[C@H](O)[C@H]2O)cc1 [gastrodin]
- peak time of gastrodin in the plasma ([5]; administration of gastrodin alone): 30 min
- peak time of gastrodin in the plasma ([5]; gastrodin co-administrated with borneol): 5 to 15 min
- bioavailability of gastrodigenin in the brain was increased by ([5]; gastrodin co-administrated with borneol, compared with gastrodin alone): 33.6-108.8%

Compound: Cc1ncc(CNC(=O)N(CCCl)N=O)c(N)n1 [nimustine]
- bioavailability of nimustine in the CSF [6]: increase
